Experimental data reported in a melting point compilation (Tetko et al.; mined from patent text by program, amines drawn as free bases though some values may be those of a salt).

melting point	Structure (SMILES)
273 to 274 °C	COc1c2nc(CCl)n(C)c(=O)c2c(OC)c2nc(CCl)n(C)c(=O)c12
> 250 °C	N#CC1=C(c2ccccc2)Nc2n[nH]cc2C1c1cccc(C(F)(F)F)c1Cl (centres undefined)
227 to 228 °C	CS(=O)c1cccc(CNC(=O)c2nc3scc(COCc4ccc(C(=O)O)cc4)c3c(=O)[nH]2)c1 (centres undefined)
70 to 72 °C	CC(=O)OC1CCCc2cnc3cc(OCc4ccccc4)ccc3c21 (centres undefined)
145 °C	CCN(CC)c1ccc(C(O)C#Cc2ccc(C(=O)O)cc2)cc1C(C)C (centres undefined)
69 to 70 °C	CCOC(=O)c1c(C(F)(F)F)nc(C(F)(F)Cl)c(C(=O)OC)c1N
114 to 115 °C	Clc1ccc(OC2CN(C(c3ccccc3)c3ccccc3)C2)cc1Cl
123 °C	CC(=O)OC1CSC(Oc2ccc(F)nc2)C(OC(C)=O)C1OC(C)=O (centres undefined)
295 to 300 °C	Cn1c(=O)[nH]c(=O)c2c1ncn2CC(=O)Nc1ccc(C2CCCC2)cc1
200 to 201 °C	N#Cc1ccc2c(c1)[C@@H](OC1=CC(=O)CC1)[C@H](O)C(CF)(CF)O2 (relative stereo)
135 to 138 °C	CN(CC(=O)O)C(=O)CC1=C(n2nc(-c3c(-c4ccccc4)nn4ccccc34)ccc2=O)CCCC1
106 to 108 °C	CCc1cc(C(C)C)c(-c2ccc(O)cc2)cc1C
230 °C	CC(SC1COC(c2ccc(C(=O)Nc3ccc(C(N)=O)cc3)cc2)OC1)C(O)(Cn1cncn1)c1ccc(F)cc1F (centres undefined)
97 to 98 °C	COP(=O)(Nc1cc(C(C)C)ccc1N1CCOCC1)OC
156 to 158 °C	NC(=S)N(O)[C@H]1C[C@@H](c2ccc(F)cc2)C1
177 °C	CC(=O)NN=C(C(=O)NN)c1ccccc1
143 to 146 °C	Cc1ccccc1C(=O)Nc1ccc(-n2nc(C(F)(F)F)cc2C2CC2)cc1
168 to 170 °C	Cc1cc(C)cc(NC(=O)Nc2ccc(-c3c(C(N)=O)[nH]c4ccccc34)cc2)c1
208 to 210 °C	O=C(O)c1scc(Cl)c1C(=O)Nc1ccccc1
206 to 208 °C	Cc1ccc(NS(=O)(=O)c2ccc(N3CCNC3=O)cc2)cc1C
213 to 215 °C	NS(=O)(=O)c1ccc(NC(=O)CNC2CCCCC2)c(Cl)c1
242 to 254 °C	N#Cc1[nH]c2ccc([N+](=O)[O-])cc2c1-c1ccccc1
154 to 157 °C	Cc1ccc(NC(=O)N(C)C)cc1

melting point	Structure (SMILES)
110 to 112 °C	CCCCCc1nc(-c2ncn3c2COC(=O)c2c(Cl)cccc2-3)no1
156 to 158 °C	C=CCOC(=O)c1ccc(NC(C)=O)cc1O
156 to 158 °C	CCOC(=O)c1ccc(-c2cc(O)c(SCCc3ccccc3)c(=O)o2)cc1
145 to 146 °C	O=C(NC1CCN(CCCOc2ccccc2-c2ncc(C(=O)O)c(O)n2)CC1)c1ccccc1
204 to 206 °C	COc1ccc(CN/C=C2\C(=O)NC(=O)c3cccc(Br)c32)cc1O
77 to 78 °C	Cc1cc(OC(C)(C)C(=O)O)cc(C)c1C
170 to 173 °C	NC(=O)C1(c2ccc(F)cc2)OC(=O)c2ccccc21 (centres undefined)
132 °C	CCOc1ccc2c(c1)C(C)(c1cc(CN3CCCC3)ccc1Cl)C(=O)N2S(=O)(=O)c1ccc(C(=O)NC(C)(C)C)cc1OC (centres undefined)
208 to 210 °C	O=C(O)Cc1ccc(-c2ccc(O)cc2)c(F)c1
79 to 81 °C	Cn1cc(C(O)(c2ccc3c(cnn3C(=O)C3CCC3)c2)C(F)(F)F)c2ccccc21 (centres undefined)
94 to 95 °C	CC(C)(C)c1cc(SCSc2cc(C(C)(C)C)c(O)c(C(C)(C)C)c2)cc(C(C)(C)C)c1O
137 to 140 °C	O=C1N(CCCCN2CCN(C3=NS(=O)(=O)c4ccccc43)CC2)CSC12CCCC2
126 to 128 °C	Cc1c(-c2ccccc2)oc2c(C(=O)N(C)CCCl)cccc2c1=O
222 °C	Cc1sc2cc(C(=O)NCC3(SCc4ccccc4)CCNCC3)[nH]c2c1N(C)S(=O)(=O)c1cccs1
185 to 186 °C	COC(=O)Cc1ccc(O)c(C23CC4CC(CC(C4)C2)C3)c1
154 to 155 °C	COc1ccc2c(c1)Sc1ccc(C(C)C(N)=O)cc1C(=O)C2 (centres undefined)
112 to 114 °C	CCCCCC(=O)n1nc(-c2cc(C(C)(C)C)c(O)c(C(C)(C)C)c2)c2cccnc21
121 to 124 °C	CCc1nc2ccccc2n1C1CCN(CCCNc2ccc(F)cc2)CC1
130 °C	CCCCn1nc2c(N)nc3ccccc3c2c1CC(C)(C)O
125 to 127 °C	CC(ON1C(C)(C)CNC(=O)CC1(C)C)c1ccccc1 (centres undefined)
163 to 165 °C	CC1(c2ccccc2)Cc2cc(O)c(Cl)c(Cl)c2C1O (centres undefined)
109 to 115 °C	CC(C)CC(NS(=O)(=O)c1cccc2ccccc12)C(=O)NC(C(C)C)C(O)c1c(-c2ccccc2)c1=O (centres undefined)
163 to 170 °C	COc1cc2c(c(Cl)c1Cl)C(=O)C(C)(c1ccc(F)cc1)C2 (centres undefined)

melting point	Structure (SMILES)
149 °C	CCCCn1ccc(N2CCC(c3ccccc3)CC2)c(Cl)c1=O
89 to 90 °C	CN(C(=O)Nc1nc(OCC(F)(F)F)cc(OCC(F)(F)F)c1F)c1ccc(Br)cc1
128 to 130 °C	CC(=O)Oc1ccc(C(Cl)=CC=O)cc1[N+](=O)[O-]
101 to 103 °C	CC(=O)OCC1OC(n2c(=O)sc3c(Cl)nc(N)nc32)C(OC(C)=O)C1OC(C)=O (centres undefined)
178 to 181 °C	CCOC(CC)=C1SC(=S)N(c2ccccc2)C1=O
158 to 161 °C	COc1ccc2c(c1)CCC1CCN(CO)C(=O)C(CC(C)N(C)C(C)C)=C21 (centres undefined)
192 to 199 °C	O=C(O)c1cn(C2CC2)c2c(F)c(N3CCC(n4ncnn4)C3)c(F)cc2c1=O (centres undefined)
111 to 114 °C	NCCNC(=O)c1cc2c(Oc3ccc(Cl)cc3)cncc2s1
115 to 116 °C	CC(c1cc2ccccc2s1)N(O)C=O (centres undefined)
57 to 58 °C	CC=Cn1c2ccccc2c2ccccc21
187 °C	COC(=O)C1(NC(=O)Cc2cc(-c3ccc(F)cc3)ccc2C)CCC(F)(F)CC1
162 to 164 °C	O=C(O)Cc1cccc(Oc2ccccc2Cl)c1[N+](=O)[O-]
230 °C	CCOC(=O)c1cn(-c2ccc(F)cn2)c2nc(Cl)c(F)cc2c1=O
97 to 99 °C	CON=C(C(=O)O)c1cccc(OCc2ccccc2Cl)c1OCc1ccccc1Cl
121 to 122 °C	COC(=O)NC(C#N)Cc1ccc(OC)c(OC2CCCC2)c1 (centres undefined)
199 °C	CN(C)CCCOc1ccc(-c2ccc(C(=O)O)cc2)cc1-c1ccc2c(c1)C(C)(C)CCC2(C)C
76 to 78 °C	CC(=O)Oc1ccc(NC(=O)OC(C)(C)C)cc1C(=O)O
163 °C	c1ccc(COc2n[nH]cc2-c2ccccc2)cc1
198 °C	CC(=O)Nc1nc(Cl)c2ncn([C@@H]3C[C@H](OC(C)=O)[C@@H](O)[C@H]3O)c2n1 (racemic)
87 to 89 °C	CCCOC(=O)c1ccc(OC(=O)c2ccccc2C(=O)Oc2ccc(C(=O)OCCC)cc2)cc1
62 to 63 °C	CC(C)(C)OC(=O)NCc1ccsc1CC(=O)O

Structure (SMILES)	melting point
CCOC(=O)c1nnn(O)n1	75 to 78 °C
Cc1nnc2n1-c1ccccc1C(c1ccc(Cl)cc1)=NC2NC(=O)Nc1ccccn1 (centres undefined)	274 to 278 °C
